Numbers after ± are expanded uncertainties.
Test: xn = mol fraction of the nth substance listed
Conditions: for surface tension liquid-gas: Maximal bubble pressure; for mass density: 101 kPa, Liquid, Vibrating tube method

ClC(Cl)(Cl)Cl [tetrachloromethane] + C[S+](C)[O-]
Conditions	mass density [kg/m3]	surface tension liquid-gas [mN/m]
298.15 K, x1 = 0.0674	1141.26 ± 0.37	–
298.15 K, x1 = 0.0994	–	38.6 ± 0.4
298.15 K, x1 = 0.101	1163.32 ± 0.39	–
298.15 K, x1 = 0.1349	1185.11 ± 0.4	–
298.15 K, x1 = 0.1643	1203.27 ± 0.42	–
298.15 K, x1 = 0.1969	–	34.6 ± 0.3
298.15 K, x1 = 0.2133	1232.98 ± 0.44	–
298.15 K, x1 = 0.2513	–	32.9 ± 0.3
298.15 K, x1 = 0.3045	1287.19 ± 0.48	–
298.15 K, x1 = 0.3299	–	30.8 ± 0.3
298.15 K, x1 = 0.383	–	29.7 ± 0.3
298.15 K, x1 = 0.4641	1370.58 ± 0.56	–
298.15 K, x1 = 0.5159	–	27.8 ± 0.3
298.15 K, x1 = 0.6022	1433.93 ± 0.61	–
298.15 K, x1 = 0.6043	–	26.8 ± 0.3
298.15 K, x1 = 0.6909	–	25.9 ± 0.3
298.15 K, x1 = 0.7132	1481.07 ± 0.66	–
298.15 K, x1 = 0.7493	–	25.8 ± 0.3
298.15 K, x1 = 0.7604	1499.6 ± 0.68	–
298.15 K, x1 = 0.8663	–	25.4 ± 0.3
298.15 K, x1 = 0.8683	1539.93 ± 0.72	–
298.15 K, x1 = 0.913	1555.64 ± 0.73	–
303.15 K, x1 = 0.0674	1135.93 ± 0.37	–
303.15 K, x1 = 0.0994	–	38 ± 0.4
303.15 K, x1 = 0.101	1157.83 ± 0.38	–
303.15 K, x1 = 0.1349	1179.45 ± 0.4	–
303.15 K, x1 = 0.1643	1197.47 ± 0.41	–
303.15 K, x1 = 0.1969	–	34.2 ± 0.3
303.15 K, x1 = 0.2133	1226.93 ± 0.43	–
303.15 K, x1 = 0.2513	–	32.6 ± 0.3
303.15 K, x1 = 0.3045	1280.68 ± 0.48	–
303.15 K, x1 = 0.3299	–	30.4 ± 0.3
303.15 K, x1 = 0.383	–	29.2 ± 0.3
303.15 K, x1 = 0.4641	1363.35 ± 0.55	–
303.15 K, x1 = 0.5159	–	27.1 ± 0.3
303.15 K, x1 = 0.6022	1425.99 ± 0.61	–
303.15 K, x1 = 0.6043	–	26.2 ± 0.3
303.15 K, x1 = 0.6909	–	25.3 ± 0.3
303.15 K, x1 = 0.7132	1472.61 ± 0.65	–
303.15 K, x1 = 0.7493	–	25.1 ± 0.3
303.15 K, x1 = 0.7604	1490.94 ± 0.67	–
303.15 K, x1 = 0.8663	–	24.6 ± 0.3
303.15 K, x1 = 0.8683	1530.74 ± 0.71	–
303.15 K, x1 = 0.913	1546.21 ± 0.72	–
308.15 K, x1 = 0.0674	1127.96 ± 0.35	–
308.15 K, x1 = 0.0994	–	37.4 ± 0.4
308.15 K, x1 = 0.101	1150.79 ± 0.38	–
308.15 K, x1 = 0.1349	1172.11 ± 0.39	–
308.15 K, x1 = 0.1643	1192.66 ± 0.41	–
308.15 K, x1 = 0.1969	–	33.4 ± 0.3
308.15 K, x1 = 0.2133	1222.1 ± 0.43	–
308.15 K, x1 = 0.2513	–	31.8 ± 0.3
308.15 K, x1 = 0.3045	1273.53 ± 0.47	–
308.15 K, x1 = 0.3299	–	29.8 ± 0.3
308.15 K, x1 = 0.383	–	28.7 ± 0.3
308.15 K, x1 = 0.4641	1355.26 ± 0.54	–
308.15 K, x1 = 0.5159	–	26.6 ± 0.3
308.15 K, x1 = 0.6022	1418.04 ± 0.6	–
308.15 K, x1 = 0.6043	–	25.6 ± 0.3
308.15 K, x1 = 0.6909	–	24.7 ± 0.3
308.15 K, x1 = 0.7132	1464.13 ± 0.64	–
308.15 K, x1 = 0.7493	–	24.5 ± 0.3
308.15 K, x1 = 0.7604	1482.25 ± 0.66	–
308.15 K, x1 = 0.8663	–	24.2 ± 0.3
308.15 K, x1 = 0.8683	1521.44 ± 0.7	–
308.15 K, x1 = 0.913	1536.79 ± 0.71	–
313.15 K, x1 = 0.0499	1116.12 ± 0.34	–
313.15 K, x1 = 0.0994	–	36.8 ± 0.4
313.15 K, x1 = 0.101	1146.87 ± 0.37	–
313.15 K, x1 = 0.1349	1168.13 ± 0.39	–
313.15 K, x1 = 0.1643	1185.85 ± 0.4	–
313.15 K, x1 = 0.1969	–	33 ± 1
313.15 K, x1 = 0.2133	1214.87 ± 0.42	–
313.15 K, x1 = 0.2513	–	31.4 ± 0.3
313.15 K, x1 = 0.3045	1267.49 ± 0.47	–
313.15 K, x1 = 0.3299	–	29.2 ± 0.3
313.15 K, x1 = 0.383	–	28.1 ± 0.3
313.15 K, x1 = 0.4641	1348.78 ± 0.54	–
313.15 K, x1 = 0.5159	–	26 ± 1
313.15 K, x1 = 0.6022	1410.05 ± 0.59	–
313.15 K, x1 = 0.6043	–	25 ± 0.3
313.15 K, x1 = 0.6909	–	24.3 ± 0.3
313.15 K, x1 = 0.7132	1455.61 ± 0.63	–
313.15 K, x1 = 0.7493	–	23.9 ± 0.3
313.15 K, x1 = 0.7604	1473.5 ± 0.65	–
313.15 K, x1 = 0.8663	–	23.7 ± 0.3
313.15 K, x1 = 0.8683	1512.23 ± 0.69	–
313.15 K, x1 = 0.913	1527.34 ± 0.7	–

From the NIST ThermoML archive (doi:10.1016/j.jct.2009.06.021)
